In ChEMBL document CHEMBL1149939, “Potential anxiolytic agents. 2. Improvement of oral efficacy for the pyrido[1,2-a]benzimidazole (PBI) class of GABA-A receptor modulators” (Bioorg Med Chem Lett, 1996):
Where “and” joins values, the source holds several entries; their conditions need not be identical. Equal values may be shown once.

How the values were obtained:
[1] = molecular target: T1, GABA-A receptor; anion channel (Rattus norvegicus) (UniProt O09028+P15431+P18506+P18508+P19969+P20236+P23574+P23576+P28471+P28473+P30191+P62813+P63079+P63138+Q91ZM7+Q9ES14); experiment: Ratio of IC50 (no GABA) to IC50 (GABA) was measured as GABA Shift (GS); format: protein-complex assay
Mus sp. = species: Mus sp.; experiment: Test ability to block the tonic-clonic component of seizures induced by metrazole in mice.; format: functional
[2] = molecular target: GABA-A receptor; anion channel; experiment: Binding affinity against the BZD site of the Gamma-aminobutyric acid A receptor in rat cerebral cortex using radioligand ([3H]flunitrazepam) assay in the presence of Gamma-aminobutyric acid; format: tissue-based
[3] = molecular target: GABA-A receptor; anion channel; experiment: Binding affinity against the BZD site of the Gamma-aminobutyric acid A receptor in rat cerebral cortex using radioligand ([3H]flunitrazepam) assay in the absence of Gamma-aminobutyric acid; format: tissue-based
[4] = molecular target: T1, GABA-A receptor; anion channel (Rattus norvegicus); experiment: Relative binding in the presence and absence of GABA, (IC50-GABA /IC50+GABA); format: protein-complex assay
Rattus norvegicus [5] = species: Rattus norvegicus; experiment: animal or person; conditions: read-out: MED
Rattus norvegicus [6] = species: Rattus norvegicus; experiment: animal or person; conditions: read-out: MED; remark: listed apart in the source
Mus musculus = species: Mus musculus; experiment: Compound was tested for its ability to block the tonic-clonic component of seizures induced by metrazole in mice; Range = 10-30; format: functional
[7] = Tested for skeletal muscle relaxant activity using horizontal screen assay.; format: functional
Rattus norvegicus [8] = species: Rattus norvegicus; experiment: The compound was tested for its ability to release (i.e., disinhibit) behavior that had been suppressed by punishment in rats (vogel conflict test).; format: functional; conditions: read-out: MED
Rattus norvegicus [9] = species: Rattus norvegicus; experiment: Compound was tested for its ability to release (i.e., disinhibit) behavior that had been suppressed by punishment in rats (vogel conflict test).; format: functional; conditions: read-out: MED
[10] = Tested for its interaction with ethanol by its ability to potentiate the effect of ethanol on sleep.; format: functional; conditions: read-out: MED

Row | Structure (SMILES) | GABA shift [1] | ED50 (Mus sp.; Mus sp., read-out: ED50) [mg/kg] | IC50 [2] [nM] | IC50 [3] [nM] | other results
1 | Cc1cnccc1NC(=O)C1=C(O)CCn2c1nc1ccccc12 | 0.6 | > 10 | 12000 | 7100 | –
2 | C[n+]1ccc(NC(=O)C2=C(O)CCn3c2nc2ccccc23)cc1 | 2 | > 10 | 3100 | 6300 | –
3 | O=C(Nc1cccnc1)C1=C(O)CCn2c1nc1ccccc12 | 1.1 | – | 48 | 51 | –
4 | Cc1cc(N(C)C)ccc1NC(=O)C1=C(O)CCn2c1nc1ccccc12 | 2.7 | – | 1500 | 4000 | –
5 | O=C(Nc1ccncc1Cl)C1=C(O)CCn2c1nc1ccccc12 | 2.2 | – | 100 | 220 | –
6 | O=C(NCc1cccnc1)C1=C(O)CCn2c1nc1ccccc12 | 1.1 | > 10 | 140 | 150 | –
7 | O=C(Nc1ccncc1F)C1=C(O)CCn2c1nc1ccccc12 | 2.6 | – | 20 | 53 | –
8 | CN(C)c1ccc(NC(=O)C2=C3N(C)c4ccccc4N3CCC2=O)cc1 | – | – | 16 | 29 | GABA shift [4]: 1.8
9 | CN(C)c1ccc(NC(=O)C2=C(O)CCn3c2nc2ccccc23)c(F)c1 | 1.4 | – | 87 | 120 | –
10 | Nc1ccccc1NC(=O)C1=C(O)CCn2c1nc1ccccc12 | – | – | 33 | 50 | GABA shift [4]: 1.5
11 | O=C(Nc1ccncn1)C1=C(O)CCn2c1nc1ccccc12 | 1.3 | > 10 | 370 | 480 | ED50 (Mus sp.): 10 mg/kg
12 | CN1C(=O)CN=C(c2ccccc2)c2cc(Cl)ccc21 [DIAZEPAM] | – | – | – | – | minimal effective dose (Rattus norvegicus [5]): 5 mg/kg; ED50 (Mus sp.): 0.11 mg/kg and 0.3 mg/kg; minimal effective dose (Rattus norvegicus [6]): 5 mg/kg
13 | Nc1ccc(NC(=O)C2=C(O)CCn3c2nc2ccccc23)cc1 | 3.8 | – | 3400 | 13000 | –
14 | O=C(Nc1ccc(C(=O)O)cc1)C1=C(O)CCn2c1nc1ccccc12 | – | – | > 10000 | > 10000 | ED50 (Mus sp.): >30 mg/kg and 10 mg/kg
15 | O=C1CCN2C(=C1C(=O)Nc1ccccc1)Nc1ccccc12 | – | 5.2 | – | – | ED50 (Mus musculus): 10 mg/kg; ED50 [7]: >30 mg/kg and 10 mg/kg; minimal effective dose (Rattus norvegicus [8]): 10 mg/kg; minimal effective dose (Rattus norvegicus [9]): > 10 mg/kg; GABA shift [4]: 1.5
16 | O=C(Nc1ccncc1)c1c(O)ccn2c1nc1ccccc12 | 1.7 | > 10 | 150 | 260 | –
17 | CN(C)c1ccccc1NC(=O)C1=C(O)CCn2c1nc1ccccc12 | – | – | – | 10000 | ED50 (Mus sp.): 4.9 mg/kg and 10 mg/kg
18 | O=C(Nc1cnccn1)C1=C(O)CCn2c1nc1ccccc12 | 0.9 | > 10 | 400 | 360 | –
19 | O=C(NCc1ccncc1)C1=C(O)CCn2c1nc1ccccc12 | 0.9 | > 10 | 69 | 65 | –
20 | O=C(Nc1ccc(O)cc1)C1=C(O)CCn2c1nc1ccccc12 | – | – | 31 | 46 | ED50 (Mus sp.): >30 mg/kg and 10 mg/kg; GABA shift [4]: 1.5
21 | O=C(Nc1ccnc(Cl)c1)C1=C(O)CCn2c1nc1ccccc12 | 1.1 | – | 65 | 68 | ED50 (Mus sp.): 3.7 mg/kg and 10 mg/kg
22 | O=C(Nc1ncccn1)C1=C(O)CCn2c1nc1ccccc12 | 1.1 | – | 50 | 54 | –
23 | O=C(Nc1ccncc1)C1=C(O)CCn2c1nc1ccccc12 | 2.1 | – | 78 | 160 | ED50 ([7]; read-out: ED50): > 30 mg/kg; minimal effective dose (Rattus norvegicus [8]): 3 mg/kg; minimal effective dose (Rattus norvegicus [9]): 10 mg/kg; ED50 (Mus sp.): 3.1 mg/kg and 7.8 mg/kg; minimal effective dose [10]: > 60 mg/kg
24 | CCN1C2=C(C(=O)Nc3ccncc3)C(=O)CCN2c2ccccc21 | 3 | – | 27 | 80 | minimal effective dose (Rattus norvegicus [8]): 3 mg/kg; minimal effective dose (Rattus norvegicus [9]): 3 mg/kg; minimal effective dose [10]: 10 mg/kg
25 | CN(C)c1ccc(NC(=O)C2=C(O)CCn3c2nc2ccccc23)cc1 | 1.2 | – | 210 | 270 | ED50 [7]: >30 mg/kg and 10 mg/kg; minimal effective dose (Rattus norvegicus [8]): 3 mg/kg; minimal effective dose (Rattus norvegicus [9]): 10 mg/kg
26 | O=C(Nc1ccccn1)C1=C(O)CCn2c1nc1ccccc12 | 1.7 | 11.2 | 36 | 59 | ED50 (Mus sp.): 10 mg/kg
27 | CN(C)c1cccc(NC(=O)C2=C(O)CCn3c2nc2ccccc23)c1 | 1.5 | – | 25 | 37 | –
